A short description of data set [1]: Nude mouse PK study with adagrasib and DCC-3116 treatment. Particulars: for AUC(0-t) / Cmax: female, athymic nude, mouse, plasma, po; for AUC(0-t): read-out: adagrasib AUC0-2 h (average); for Cmax: read-out: adagrasib Cmax in plasma (average). It counts as in vivo. Here is the method: The nude mouse PK study was performed at Attentive Science (Stilwell, KS), an AAALAC accredited facility. Food and water were provided ad libitum. […] Female athymic nude mice (n=3 per group) were dosed for 5 consecutive days. […] At 0, 0.5, and 2 h post final dose blood samples were collected from mice from each group. Blood samples were collected in K2EDTA tubes and processed into plasma, then stored at −20° C. Plasma samples were subjected to pharmacokinetic analysis using liquid chromatography coupled with tandem mass spectrometry analysis.

For data set [2], the system named is ULK. The data set is described as follows: pATG13 ELISA in GIST-T1 cells, DCC-3116 with binimetinib and/or ripretinib. Particulars: GIST-T1 cell line, FIG. 10. It counts as cell-based. On the technique in general: An ELISA detects its analyte on a solid surface through an enzyme-linked reagent.
Description: A substrate solution for HRP was added and the absorbance was measured using a plate reader. Data was plotted in GraphPad Prism and fit to a sigmoidal dose response curve to generate IC50 values.
Data set [3] can be described thus: MiaPaca-2 xenograft PK/PD model: sotorasib plasma PK with DCC-3116. In kind it is in vivo, mouse. Particulars: for AUC(0-t) / Cmax: female, Envigo Nude, mouse, plasma, po, 10 mg/kg. How it is done:
The MiaPaca-2 xenograft model was performed in compliance with all the laws, regulations and guidelines of the National Institutes of Health (NIH) and with the approval of the Animal Care and Use Committee of Labcorp (Ann Arbor, MI), an AAALAC accredited facility. Food and water were provided ad libitum. […] Female Envigo Nude mice (6-7 weeks old) were inoculated subcutaneously just below the right high axilla with ten million cells in Dulbecco's Phosphate Buffered Saline with 50% Matrigel, using a 27-gauge needle and syringe. When tumor burdens reached 182 mm^3 on average on day 6, mice were randomly assigned into groups such that the mean tumor burden for all groups was within 10% of the overall mean tumor burden for the study population. […] At 2 h post final dose in the vehicle group, and 2, 6, and 10 h post final dose in the treatment groups, 3 mice from each group were sacrificed for tumor and plasma sampling. Blood samples were collected in K2EDTA tubes and processed into plasma, snap frozen in liquid nitrogen then stored at −80° C. Plasma samples were subjected to pharmacokinetic analysis using liquid chromatography coupled with tandem mass spectrometry analysis (Cayman Chemical, Ann Arbor, MI). Tumors were harvested and powdered over liquid nitrogen in covaris bags and stored at −80° C.

Setting [4] is: 25 mg/kg, adagrasib in combination with 25 mg/kg DCC-3116 (first statement).
Where [5] appears, read: 25 mg/kg, adagrasib in combination with 25 mg/kg DCC-3116 (second statement).
Where [6] appears, read: 100 mg/kg, adagrasib 100 mg/kg PO QD single agent, 5 days.
[7] abbreviates: 10 mg/kg sotorasib + 10 mg/kg DCC-3116.
Where [8] appears, read: 10 mg/kg sotorasib + 25 mg/kg DCC-3116.
[9] abbreviates: 10 mg/kg sotorasib + 100 mg/kg DCC-3116.
The mark [10] stands for this setting: 10 mg/kg sotorasib as a single agent.

Take `C=C(F)C(=O)N1CCN(c2nc(OC[C@@H]3CCCN3C)nc3c2CCN(c2cccc4cccc(Cl)c24)C3)C[C@@H]1CC#N` [adagrasib, reference compound]: the “differences in adagrasib Cmax and AUC0-2 h amongst groups” value in data set [1] (adagrasib alone versus with DCC-3116) is recorded as “not statistically significant”. Moreover, the AUC(0-t) in data set [1] (setting [4]) was determined as 2970 ng·h/mL; in data set [1] (setting [5]) it was 3560 ng·h/mL; in data set [1] (setting [6]), 4230 ng·h/mL. Also, the maximum concentration (Cmax) (commonly the highest concentration seen after dosing) in data set [1] (setting [4]) is 1880 ng/mL; in data set [1] (setting [5]) it was 2060 ng/mL; in data set [1] (setting [6]) it was 2530 ng/mL.

In the case of `Cn1cnc2c(F)c(Nc3ccc(Br)cc3F)c(C(=O)NOCCO)cc21` [binimetinib], the “effect on ULK activity” value in data set [2] is “induces ULK Activity”.

For `C=CC(=O)N1CCN(c2nc(=O)n(-c3c(C)ccnc3C(C)C)c3nc(-c4c(O)cccc4F)c(F)cc23)[C@@H](C)C1` [sotorasib], the AUC(0-t) came out at 344 ng·h/mL in data set [3] (setting [7]), 727 ng·h/mL in data set [3] (setting [8]), 385 ng·h/mL in data set [3] (setting [9]) and 963 ng·h/mL in data set [3] (setting [10]). The Cmax was 76 ng/mL in data set [3] (setting [7]), 170 ng/mL in data set [3] (setting [8]), 74 ng/mL in data set [3] (setting [9]) and 296 ng/mL in data set [3] (setting [10]). In addition, the “differences in sotorasib Cmax and AUC0-10 h amongst groups” value in data set [3] (sotorasib alone versus with DCC-3116) is “not statistically significant”.

The values are drawn from patent publication US20240180923A1, “METHODS OF TREATING DISORDERS WITH ULK INHIBITORS” (Deciphera Pharmaceuticals, LLC, priority 2022, published 2024).
